Test results from US10821160B2, “L-asparaginase variants and fusion proteins with reduced L-glutaminase activity and enhanced stability” (priority 2016, dated 2020).
Where “and” joins values, the source holds several entries; their conditions need not be identical. Identical values can stand only once.

Experiments:
[1] = biological target: Erwinia chrysanthemi L-asparaginase (ErA) variant A31I-E63Q-S254Q (ErA-TM2), SEQ ID NO:6 (Dickeya chrysanthemi, UniProt P06608, A52I/E84Q/S275Q)
Experimental: (§1) A conventional assay for determining L-glutaminase activity (Gella & Pascual (1982) Anal. Biochem. 127:322-5) was used with some modifications. The purified enzyme was mixed into a solution containing 50 mM Tris-HCl pH 8.5, 1 mg/mL BSA, 7 U GDH (Glutamate dehydrogenase, Sigma-Aldrich), 3 mM INT (Iodonitrotetrazolium chloride, Sigma-Aldrich), 100 mM PMS (Phenazine methosulfate, Sigma-Aldrich), and 100 mM NAD+. […] The latter, in the presence of NAD+ and under the catalysis of GDH, is broken further into α-ketoglutarate and ammonia. NADH produced by this second reaction, together with INT serve as inputs to the third reaction, where the formation of INT-formazan under the catalysis of PMS can be followed spectrophotometrically as an increase in absorbance at 500 nm. All reactions were carried out at 37° C. 1 IU of enzyme is defined as the amount of enzyme used to produce 1 μmole of product in 1 minute at 37° C.

[2] = biological target: T1, Escherichia coli L-asparaginase, wild type (EcA-WT), SEQ ID NO:9 (Escherichia coli, UniProt P00805); assay: L-glutaminase activity, GDH/INT coupled assay; format: biochemical
T1 sequence (P00805 with tags, fused parts or gaps): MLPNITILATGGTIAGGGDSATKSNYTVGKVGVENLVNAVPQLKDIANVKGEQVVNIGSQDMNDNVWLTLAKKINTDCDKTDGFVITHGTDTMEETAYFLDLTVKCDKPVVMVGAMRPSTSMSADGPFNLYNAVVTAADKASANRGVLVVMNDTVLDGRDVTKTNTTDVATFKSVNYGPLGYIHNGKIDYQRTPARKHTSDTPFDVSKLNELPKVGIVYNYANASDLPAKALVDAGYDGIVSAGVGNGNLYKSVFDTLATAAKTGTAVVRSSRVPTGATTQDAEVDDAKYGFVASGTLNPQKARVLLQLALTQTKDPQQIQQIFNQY
Experimental: as §1

[3] = biological target: T2, Erwinia chrysanthemi L-asparaginase (ErA) variant A31I-E63Q (ErA-DM2), SEQ ID NO:4 (Dickeya chrysanthemi, UniProt P06608, A52I/E84Q); format: biochemical
T2 construct: lacking the first 21-amino acid residue signal peptide; His6-SUMO (yeast Smt3p) (N, cleaved yes); made in house; host or cells: E. coli BL21(DE3) C41
Experimental: as §1
(§2) Using colorimetric enzyme-coupled assays, L-asparaginase and L-glutaminase activity of the enzymes was determined.

[4] = biological target: T3, Erwinia chrysanthemi L-asparaginase (ErA) variant E63Q-S254N (ErA-DM1), SEQ ID NO:3 (Dickeya chrysanthemi, UniProt P06608, E84Q/S275N); format: biochemical
T3 construct: lacking the first 21-amino acid residue signal peptide; His6-SUMO (yeast Smt3p) (N, cleaved yes); made in house; host or cells: E. coli BL21(DE3) C41
Experimental: as §1, §2

[5] = biological target: Erwinia chrysanthemi L-asparaginase (ErA) variant E63Q (ErA-E63Q), SEQ ID NO:2 (Dickeya chrysanthemi, UniProt P06608, E84Q); format: biochemical; parameters: lacking the first 21-amino acid residue signal peptide; His6-SUMO (yeast Smt3p) (N, cleaved yes); made in house; host or cells: E. coli BL21(DE3) C41
Experimental: as §1, §2

[6] = biological target: T4, Erwinia chrysanthemi L-asparaginase, wild type (ErA-WT), SEQ ID NO:1 (Dickeya chrysanthemi, UniProt P06608); assay: L-glutaminase activity, GDH/INT coupled assay; format: biochemical
T4 construct: lacking the first 21-amino acid residue signal peptide; His6-SUMO (yeast Smt3p) (N, cleaved yes); made in house; host or cells: E. coli BL21(DE3) C41
Experimental: as §1, §2

[7] = biological target: T5, Erwinia chrysanthemi L-asparaginase (ErA) variant E63Q-S254Q (ErA-DM3), SEQ ID NO:5 (Dickeya chrysanthemi, UniProt P06608, E84Q/S275Q); assay: L-glutaminase activity, GDH/INT coupled assay; format: biochemical
T5 construct: lacking the first 21-amino acid residue signal peptide; His6-SUMO (yeast Smt3p) (N, cleaved yes); made in house; host or cells: E. coli BL21(DE3) C41
Experimental: as §1, §2

[8] = tested on: Erwinia chrysanthemi L-asparaginase (ErA) variant E63Q-S254Q (ErA-DM3), SEQ ID NO:5; assay: L-glutaminase activity, GDH/INT coupled assay; format: biochemical; settings: Gln, 37° C
Experimental: as §1, §2

[9] = biological target: T6, Erwinia chrysanthemi L-asparaginase (ErA) variant E63Q-S254Q (ErA-DM3), SEQ ID NO:5 (Dickeya chrysanthemi, UniProt P06608, E84Q/S275N); assay: L-glutaminase activity, GDH/INT coupled assay; format: biochemical; settings: Gln, head prints 50 mM
T6 construct: lacking the first 21-amino acid residue signal peptide; His6-SUMO (yeast Smt3p) (N, cleaved yes); made in house; host or cells: E. coli BL21(DE3) C41
Experimental: as §1, §2

[10] = biological target: T7, Erwinia chrysanthemi L-asparaginase (ErA) variant A31I-E63Q-S254N (ErA-TM1), SEQ ID NO:7 (Dickeya chrysanthemi, UniProt P06608, A52I/E84Q/S275N); format: biochemical
T7 construct: lacking the first 21-amino acid residue signal peptide; His6-SUMO (yeast Smt3p) (N, cleaved yes); made in house; host or cells: E. coli BL21(DE3) C41
Experimental: as §1

[11] = tested on: Erwinia chrysanthemi L-asparaginase (ErA) variants ErA-E63Q, ErA-DM2 (A31I-E63Q) and ErA-DM1 (E63Q-S254N); assay: L-glutaminase activity of the mutants as a group vs ErA-WT; format: biochemical
Experimental: as §1, §2

[12] = tested on: NC(=O)C[C@H](N)C(=O)O; assay: purified protein, by the assay type; format: biochemical, Erwinia chrysanthemi; settings: other: Asn, 37° C
Experimental: L-asparaginase activity was determined using a continuous spectroscopic enzyme-coupled assay as previously described (Schalk, et al. (2014) J. Biol. Chem. 289:33175-33186). In brief, the assay measures the production of L-aspartate through the 1:1 oxidation of reduced NADH. The conversion of NADH to NAD^+ was measured spectrophotometrically as a decrease in absorbance at 340 nm at 37° C. All measurements were taken in triplicate. Rates were fit to the Michaelis-Menten equation using SIGMAPLOT software (Systat Software Inc).
Using colorimetric enzyme-coupled assays, L-asparaginase and L-glutaminase activity of the enzymes was determined. […] Seventeen of the 18 mutants had reduced L-glutaminase activity (Table 7). However, for most of the mutants, this decrease was concomitant with a decline in the L-asparaginase activity. Using the criteria of (i) ≥60% retained L-asparaginase activity (relative to Erw-WT) and (ii) ≤5% L-glutaminase versus and L-asparaginase activity, mutants ErA-E63Q, ErA-S254P, ErA-A31I+E63Q and ErA-S254N+E63Q were selected for further study.

[13] = tested on: NC(=O)CC[C@H](N)C(=O)O; assay: purified protein, by the assay type; settings: other: Gln, 37° C, pH 8.5

`NC(=O)CC[C@H](N)C(=O)O` [Gln, L-glutamine] was tested, and the “kobs @100 μM” value ([1]; 100 μM Gln) was 0.0045 s⁻¹, the “kobs @0.5 mM” value ([1]; 0.5 mM Gln) was 0.0083 s⁻¹ and the “kobs @500 μM” value ([1]; 500 μM Gln) was 0.0083 s⁻¹. For the same molecule, the Km ([1]; Gln, 37° C) was 47.5 mM, the kcat ([1]; Gln, 37° C) was 1.836 ± 0.11 s⁻¹ and the kcat/Km ([1]; Gln, 37° C) was 0.04 × 10^−3 sec^−1μM^−1. For the same molecule, the “kobs @100 μM” value ([2]; 100 μM Gln) was 0.047 s⁻¹, the “kobs @0.5 mM” value ([2]; 0.5 mM Gln) was 0.22 s⁻¹ and the “kobs @500 μM” value ([2]; 500 μM Gln) was 0.22 s⁻¹. The “kobs @1 mM” value ([2]; 1 mM Gln) was 0.36 s⁻¹, the “kobs @ 50 mM” value ([2]; Gln) was 0.22 s⁻¹ and the kcat/Km ([2]; Gln, 37° C) was 0.64 × 10^−3 sec^−1μM^−1. For the same molecule, the “kobs @100 μM” value ([3]; 100 μM Gln) was 0.105 s⁻¹, the “kobs @0.5 mM” value ([3]; 0.5 mM Gln) was 0.83 s⁻¹ and the “kobs @500 μM” value ([3]; 500 μM Gln) was 0.73 s⁻¹. For the same molecule, the “kobs @1 mM” value ([3]; 1 mM Gln) was 2.20 s⁻¹, the Km ([3]; Gln, 37° C) was 2.73 ± 0.02 mM and the kcat ([3]; Gln, 37° C) was 6.01 ± 0.13 s⁻¹. The kcat/Km ([3]; Gln, 37° C) was 2.2 × 10^−3 sec^−1μM^−1, the “kobs @100 μM” value ([4]; 100 μM Gln) was 0.019 s⁻¹ and the “kobs @0.5 mM” value ([4]; 0.5 mM Gln) was 0.11 s⁻¹. For the same molecule, the “kobs @500 μM” value ([4]; 500 μM Gln) was 0.07 s⁻¹, the “kobs @1 mM” value ([4]; 1 mM Gln) was 0.18 s⁻¹ and the Km ([4]; Gln, 37° C) was 15.8 ± 0.3 mM. The kcat ([4]; Gln, 37° C) was 2.93 ± 0.03 s⁻¹, the kcat/Km ([4]; Gln, 37° C) was 0.19 × 10^−3 sec^−1μM^−1 and the “kobs @100 μM” value ([5]; 100 μM Gln) was 0.098 s⁻¹. The “kobs @0.5 mM” value ([5]; 0.5 mM Gln) was 0.74 s⁻¹, the “kobs @500 μM” value ([5]; 500 μM Gln) was 0.72 s⁻¹ and the “kobs @1 mM” value ([5]; 1 mM Gln) was 2.16 s⁻¹. For the same molecule, the Km ([5]; Gln, 37° C) was 3.86 ± 0.23 mM, the kcat ([5]; Gln, 37° C) was 8.33 ± 0.16 s⁻¹ and the kcat/Km ([5]; Gln, 37° C) was 3.68 sec^−1mM^−1 and 3.68 × 10^−3 sec^−1μM^−1. For the same molecule, the “kobs @100 μM” value ([6]; 100 μM Gln) was 6.118 s⁻¹, the “kobs @0.5 mM” value ([6]; 0.5 mM Gln) was 15.87 s⁻¹ and the “kobs @500 μM” value ([6]; 500 μM Gln) was 15.06 s⁻¹. The “kobs @1 mM” value ([6]; 1 mM Gln) was 19.22 s⁻¹, the kcat/Km ([6]; Gln, 37° C) was 74.56 × 10^−3 sec^−1μM^−1 and the “kobs @ 50 mM” value ([6]; Gln, head prints 50 mM) was 15.87 s⁻¹. The “kobs @100 μM” value ([7]; 100 μM Gln) was 0.009 s⁻¹, the “kobs @0.5 mM” value ([7]; 0.5 mM Gln) was 0.0226 s⁻¹ and the “kobs @500 μM” value ([7]; 500 μM Gln) was 0.02 s⁻¹. For the same molecule, the “kobs @1 mM” value ([7]; 1 mM Gln) was 0.19 s⁻¹, the Km [8] was 84 mM and the “kobs @ 50 mM” value [9] was 0.11 s⁻¹. For the same molecule, the “kobs @0.5 mM” value ([10]; 0.5 mM Gln) was 0.11 s⁻¹, the “kobs @1 mM” value ([10]; 1 mM Gln) was 0.33 s⁻¹ and the Km ([10]; Gln, 37° C) was 28.2 mM. The kcat ([10]; Gln, 37° C) was 5.6 ± 0.2 s⁻¹, the kcat/Km ([10]; Gln, 37° C) was 0.19 × 10^−3 sec^−1μM^−1 and the “observed L-glutaminase rate reduced by” value ([11]; 0.5 mM Gln, relative to ErA-WT) was 95-99%. For the same molecule, the “L-glutaminase efficiency (kcat/Km) reduced by” value ([11]; Gln, vs ErA-WT) was 20-400 fold, the “increased Km (fold higher compared ErA-WT)” value ([11]; Gln, vs ErA-WT) was 8-44 fold and the “reduced kcat (fold lower compared ErA-WT)” value ([11]; Gln, vs ErA-WT) was 3-9 fold.

Molecule “Erwinia chrysanthemi L-asparaginase (ErA) variant A31I-E63Q (ErA-DM2), SEQ ID NO:4 (Dickeya chrysanthemi; A52I/E84Q)” has a Km [12] of 0.037 mM.

“Erwinia chrysanthemi L-asparaginase (ErA) variant A31I-E63Q-S254Q (ErA-TM2), SEQ ID NO:6 (Dickeya chrysanthemi; A52I/E84Q/S275Q)” showed a Km [13] of 47.5 ± 0.7 mM.
